# Test: Inhibition of C3b activation relative to compstatin
row,SMILES,logIC50
1,CC[C@H](C)[C@H](NC(C)=O)C(=O)N[C@H]1CSSC[C@@H](C(=O)N[C@H](C(=O)O)[C@@H](C)O)NC(=O)[C@H](CCCNC(=N)N)NC(=O)[C@H](Cc2cnc[nH]2)NC(=O)[C@H](C)NC(=O)CNC(=O)[C@H](Cc2c[nH]c3ccccc23)NC(=O)[C@H](CC(=O)O)NC(=O)[C@H](CCC(N)=O)NC(=O)[C@@H](Cc2csc3ccccc23)NC(=O)[C@H](C(C)C)NC1=O,1.83
2,CC[C@H](C)[C@H](NC(C)=O)C(=O)N[C@H]1CSSC[C@@H](C(=O)N[C@H](C(N)=O)[C@@H](C)O)NC(=O)[C@H](CCCNC(=N)N)NC(=O)[C@H](Cc2cnc[nH]2)NC(=O)[C@H](C)NC(=O)CNC(=O)[C@H](Cc2c[nH]c3ccc(O)cc23)NC(=O)[C@H](CC(=O)O)NC(=O)[C@H](CCC(N)=O)NC(=O)[C@H](Cc2c[nH]c3ccc(O)cc23)NC(=O)[C@H](C(C)C)NC1=O,0.211
3,CC[C@H](C)[C@H](NC(C)=O)C(=O)N[C@H]1CSSC[C@@H](C(=O)N[C@H](C(N)=O)[C@@H](C)O)NC(=O)[C@H](CCCNC(=N)N)NC(=O)[C@H](Cc2cnc[nH]2)NC(=O)[C@H](C)NC(=O)CNC(=O)[C@H](Cc2c[nH]c3ccccc23)NC(=O)[C@H](CC(=O)O)NC(=O)[C@H](CCC(N)=O)NC(=O)[C@H](C2Cc3ccccc3C2)NC(=O)[C@H](C(C)C)NC1=O,1.58
4,CC[C@H](C)[C@H](NC(C)=O)C(=O)N[C@H]1CSSC[C@@H](C(=O)N[C@H](C(N)=O)[C@@H](C)O)NC(=O)[C@H](CCCNC(=N)N)NC(=O)[C@H](Cc2cnc[nH]2)NC(=O)[C@H](C)NC(=O)CNC(=O)[C@H](Cc2c[nH]c3ccccc23)NC(=O)[C@H](CC(=O)O)NC(=O)[C@H](CCC(N)=O)NC(=O)[C@H](CC2CCCCC2)NC(=O)[C@H](C(C)C)NC1=O,0.056
5,CC[C@H](C)[C@H](NC(C)=O)C(=O)N[C@H]1CSSC[C@@H](C(=O)N[C@H](C(N)=O)[C@@H](C)O)NC(=O)[C@H](CCCNC(=N)N)NC(=O)[C@H](Cc2cnc[nH]2)NC(=O)[C@H](C)NC(=O)CNC(=O)[C@H](Cc2c[nH]c3ccccc23)NC(=O)[C@H](CC(=O)O)NC(=O)[C@H](CCC(N)=O)NC(=O)[C@H](Cc2csc3ccccc23)NC(=O)[C@H](C(C)C)NC1=O,1.83
6,CC[C@H](C)[C@H](NC(C)=O)C(=O)N[C@H]1CSSC[C@@H](C(=O)N[C@H](C(N)=O)[C@H](C)O)NC(=O)[C@H](CCCNC(=N)N)NC(=O)[C@H](Cc2cnc[nH]2)NC(=O)[C@H](Cc2cnc[nH]2)NC(=O)CNC(=O)[C@H](Cc2c[nH]c3ccccc23)NC(=O)[C@H](CC(=O)O)NC(=O)[C@H](CCC(N)=O)NC(=O)[C@H](Cc2c[nH]c3ccccc23)NC(=O)[C@H](C(C)C)NC1=O,1.39

# The remaining lines, values ahead:
row,logIC50,SMILES
1,1.69,CC[C@H](C)[C@H](NC(C)=O)C(=O)N[C@H]1CSSC[C@@H](C(=O)N[C@H](C(=O)O)[C@@H](C)O)NC(=O)[C@H](CCCNC(=N)N)NC(=O)[C@H](Cc2cnc[nH]2)NC(=O)[C@H](C)NC(=O)CNC(=O)[C@H](Cc2c[nH]c3ccccc23)NC(=O)[C@H](CC(=O)O)NC(=O)[C@H](CCC(N)=O)NC(=O)[C@H](Cc2ccc(C(=O)c3ccccc3)cc2)NC(=O)[C@H](C(C)C)NC1=O
2,1.95,CC[C@H](C)[C@H](NC(C)=O)C(=O)N[C@H]1CSSC[C@@H](C(=O)N[C@H](C(N)=O)[C@@H](C)O)NC(=O)[C@H](CCCNC(=N)N)NC(=O)[C@H](Cc2cnc[nH]2)NC(=O)[C@H](C)NC(=O)CNC(=O)[C@H](Cc2c[nH]c3ccccc23)NC(=O)[C@H](CC(=O)O)NC(=O)[C@H](CCC(N)=O)NC(=O)[C@H](Cc2ccc(C(=O)c3ccccc3)cc2)NC(=O)[C@H](C(C)C)NC1=O
3,1.17,CC[C@H](C)[C@H](NC(C)=O)C(=O)N[C@H]1CSSC[C@@H](C(=O)N[C@H](C(N)=O)[C@@H](C)O)NC(=O)[C@H](CCCNC(=N)N)NC(=O)[C@H](Cc2cnc[nH]2)NC(=O)[C@H](C)NC(=O)CNC(=O)[C@H](Cc2c[nH]c3ccccc23)NC(=O)[C@H](CC(=O)O)NC(=O)[C@H](CCC(N)=O)NC(=O)[C@H](Cc2ccc(O)cc2)NC(=O)[C@H](C(C)C)NC1=O
